Experimental data as given in patent US20230081426A1, “COMPOUNDS AND METHODS FOR KRAS MODULATION AND INDICATIONS THEREFOR” (Plexxikon Inc., priority 2020, published 2023).

Target: T1, G12D-mutant human KRAS (amino acid residues 1-188) (Homo sapiens, UniProt P01116, G12D)
T1 construct: G12D or G12C-mutant human KRAS (amino acid residues 1-188) with FLAG tag; made in house; host or cells: E. coli
Experiment: KRAS Binding Disruption Assay (AlphaScreen; biotinylated KRpep-2d analogue or RAF1-RBD), G12D
Conditions: KRAS G12D; geometric mean; read-out: KRAS GMean IC50 (uM) MUTATION: G12D
Summary of the method: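 Mutant KRAS (5-20 nM) incubated 1 h at 25° C with test compound and 5-20 nM biotinylated KRpep-2d analogue or RAF1-RBD in 20 mM HEPES pH 7.5, 100 mM NaCl, 5 mM MgCl2, 0.01% Tween-20, 0.01% BSA.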

T1 sequence (P01116 1-188 isoform P01116-2 G12D): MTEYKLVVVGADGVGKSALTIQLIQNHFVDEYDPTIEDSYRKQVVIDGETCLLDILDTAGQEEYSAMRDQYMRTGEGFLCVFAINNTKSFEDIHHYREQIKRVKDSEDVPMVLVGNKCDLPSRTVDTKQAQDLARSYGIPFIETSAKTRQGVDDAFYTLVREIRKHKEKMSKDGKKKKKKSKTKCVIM

IC50 [µM] | Structure (SMILES)
0.0001 to 10 | CN1CC[C@@H](COc2nc(N3C[C@H]4CC[C@@H](C3)N4)c3ccc(-c4cc(O)cc5ccccc45)cc3n2)C1 [P-0069, 4-(4-((1R,5S)-3,8-diazabicyclo[3.2.1]octan-3-yl)-2-(((R)-1-methylpyrrolidin-3-yl)methoxy)quinazolin-7-yl)naphthalen-2-ol]
0.0001 to 10 | Oc1cc(-c2ccc3c(N4C[C@H]5CC[C@@H](C4)N5)nc(N4CCC5(CCNC5)C4)nc3c2F)c2ccccc2c1 (stereo partly drawn) [P-0526, 4-(4-((1R,5S)-3,8-diazabicyclo[3.2.1]octan-3-yl)-8-fluoro-2-(2,7-diazaspiro[4.4]nonan-2-yl)quinazolin-7-yl)naphthalen-2-ol]
0.0001 to 10 | CC(CO)(COc1nc(N2C[C@H]3CC[C@@H](C2)N3)c2ccc(-c3cc(O)cc4ccccc34)c(F)c2n1)c1ccccc1 (stereo partly drawn) [P-0516, 4-(4-((1R,5S)-3,8-diazabicyclo[3.2.1]octan-3-yl)-8-fluoro-2-(3-hydroxy-2-methyl-2-phenylpropoxy)quinazolin-7-yl)naphthalen-2-ol]
0.0001 to 10 | Oc1cc(-c2c(Cl)cc3c(N4C[C@H]5CC[C@@H](C4)N5)nc(OCCCN4CCC(F)(F)C4)nc3c2F)c2ccccc2c1 [P-0532, 4-(4-((1R,5S)-3,8-diazabicyclo[3.2.1]octan-3-yl)-6-chloro-2-(3-(3,3-difluoropyrrolidin-1-yl)propoxy)-8-fluoroquinazolin-7-yl)naphthalen-2-ol]
0.0001 to 10 | CN1CCC1COc1nc(N2C[C@H]3CC[C@@H](C2)N3)c2ccc(-c3cc(O)cc4ccccc34)cc2n1 (stereo partly drawn) [P-0086, 4-(4-((1R,5S)-3,8-diazabicyclo[3.2.1]octan-3-yl)-2-((1-methylazetidin-2-yl)methoxy)quinazolin-7-yl)naphthalen-2-ol]
0.0001 to 10 | CN1CC(F)(F)C[C@H]1COc1nc(N2C[C@H]3CC[C@@H](C2)N3)c2ccc(-c3cc(O)cc4ccccc34)c(F)c2n1 [P-0553, 4-(4-((1R,5S)-3,8-diazabicyclo[3.2.1]octan-3-yl)-2-(((S)-4,4-difluoro-1-methylpyrrolidin-2-yl)methoxy)-8-fluoroquinazolin-7-yl)naphthalen-2-ol]
0.0001 to 10 | Oc1cc(-c2ccc3c(N4C[C@H]5CC[C@@H](C4)N5)nc(NCC4CCCC4O)nc3c2F)c2ccccc2c1 (stereo partly drawn) [P-0556, 4-(4-((1R,5S)-3,8-diazabicyclo[3.2.1]octan-3-yl)-8-fluoro-2-(((2-hydroxycyclopentyl)methyl)amino)quinazolin-7-yl)naphthalen-2-ol]
0.0001 to 10 | CC(=O)NCC(C)(C)COc1nc(N2C[C@H]3CC[C@@H](C2)N3)c2ccc(-c3cc(O)cc4ccccc34)c(F)c2n1 [P-0591, N-(3-((4-((1R,5S)-3,8-diazabicyclo[3.2.1]octan-3-yl)-8-fluoro-7-(3-hydroxynaphthalen-1-yl)quinazolin-2-yl)oxy)-2,2-dimethylpropyl)acetamide]
0.0001 to 10 | CNCC1(CC#N)CCN(c2nc(N3C[C@H]4CC[C@@H](C3)N4)c3ccc(-c4cc(O)cc5ccccc45)c(F)c3n2)C1 (stereo partly drawn) [P-0529, 2-(1-(4-((1R,5S)-3,8-diazabicyclo[3.2.1]octan-3-yl)-8-fluoro-7-(3-hydroxynaphthalen-1-yl)quinazolin-2-yl)-3-((methylamino)methyl)pyrrolidin-3-yl)acetonitrile]
0.0001 to 10 | Oc1cc(-c2ccc3c(N4C[C@H]5CC[C@@H](C4)N5)nc(N4CCC5(CCOCC5)C4)nc3c2F)c2ccccc2c1 [P-0527, 4-(4-((1R,5S)-3,8-diazabicyclo[3.2.1]octan-3-yl)-8-fluoro-2-(8-oxa-2-azaspiro[4.5]decan-2-yl)quinazolin-7-yl)naphthalen-2-ol]
0.0001 to 10 | OCC1(CNc2nc(N3C[C@H]4CC[C@@H](C3)N4)c3ccc(-c4cc(O)cc5ccccc45)c(F)c3n2)COC1 [P-0581, 4-(4-((1R,5S)-3,8-diazabicyclo[3.2.1]octan-3-yl)-8-fluoro-2-(((3-(hydroxymethyl)oxetan-3-yl)methyl)amino)quinazolin-7-yl)naphthalen-2-ol]

Continued, compound first:

Structure (SMILES) | IC50 [µM]
CN1CCC[C@H]1COc1nc(N2C[C@H]3C[C@@H]2CN3)c2cc(Cl)c(-c3cc(O)cc4ccccc34)c(F)c2n1 [P-0041, 4-(4-((1R,4R)-2,5-diazabicyclo[2.2.1]heptan-2-yl)-6-chloro-8-fluoro-2-(((S)-1-methylpyrrolidin-2-yl)methoxy)quinazolin-7-yl)naphthalen-2-ol] | 0.0001 to 10
C#Cc1c(F)ccc2[nH]cc(-c3ccc4c(N5C[C@H]6CC[C@@H](C5)N6)nc(OCC56CCCN5CCC6)nc4c3F)c12 [P-0515] | 0.0001 to 10
CS(=O)(=O)NCCN1[C@@H]2CC[C@H]1CN(c1nc(OCC34CCCN3CCC4)nc3c(F)c(-c4cc(O)cc5ccccc45)ccc13)C2 [P-0542, N-(2-((1R,5S)-3-(8-fluoro-7-(3-hydroxynaphthalen-1-yl)-2-((tetrahydro-1H-pyrrolizin-7a(5H)-yl)methoxy)quinazolin-4-yl)-3,8-diazabicyclo[3.2.1]octan-8-yl)ethyl)methanesulfonamide] | 0.0001 to 10
CN(C)CCN(C)c1nc(N2C[C@H]3CC[C@@H](C2)N3)c2ccc(-c3cc(O)cc4ccccc34)cc2n1 [P-0057, 4-(4-((1R,5S)-3,8-diazabicyclo[3.2.1]octan-3-yl)-2-((2-(dimethylamino)ethyl)(methyl)amino)quinazolin-7-yl)naphthalen-2-ol] | 10 to 100
NCCN1[C@@H]2CC[C@H]1CN(c1nc(OCC34CCCN3CCC4)nc3c(F)c(-c4cc(O)cc5ccccc45)ccc13)C2 [P-0545, 4-(4-((1R,5S)-8-(2-aminoethyl)-3,8-diazabicyclo[3.2.1]octan-3-yl)-8-fluoro-2-((tetrahydro-1H-pyrrolizin-7a(5H)-yl)methoxy)quinazolin-7-yl)naphthalen-2-ol] | 0.0001 to 10
CC(C)(C)OC(=O)NCCN1[C@@H]2CC[C@H]1CN(c1nc(OCC34CCCN3CCC4)nc3c(F)c(-c4cc(O)cc5ccccc45)ccc13)C2 [P-0551, tert-butyl (2-((1R,5S)-3-(8-fluoro-7-(3-hydroxynaphthalen-1-yl)-2-((tetrahydro-1H-pyrrolizin-7a(5H)-yl)methoxy)quinazolin-4-yl)-3,8-diazabicyclo[3.2.1]octan-8-yl)ethyl)carbamate] | 0.0001 to 10
CC(C)C(CO)COc1nc(N2C[C@H]3CC[C@@H](C2)N3)c2ccc(-c3cc(O)cc4ccccc34)c(F)c2n1 (stereo partly drawn) [P-0586, 4-(4-((1R,5S)-3,8-diazabicyclo[3.2.1]octan-3-yl)-8-fluoro-2-(2-(hydroxymethyl)-3-methylbutoxy)quinazolin-7-yl)naphthalen-2-ol] | 0.0001 to 10
NC(=O)NCCN1[C@@H]2CC[C@H]1CN(c1nc(OCC34CCCN3CCC4)nc3c(F)c(-c4cc(O)cc5ccccc45)ccc13)C2 [P-0543, 1-(2-((1R,5S)-3-(8-fluoro-7-(3-hydroxynaphthalen-1-yl)-2-((tetrahydro-1H-pyrrolizin-7a(5H)-yl)methoxy)quinazolin-4-yl)-3,8-diazabicyclo[3.2.1]octan-8-yl)ethyl)urea] | 0.0001 to 10
NC(=O)CN1[C@@H]2CC[C@H]1CN(c1nc(OCC34CCCN3CCC4)nc3c(F)c(-c4cc(O)cc5ccccc45)ccc13)C2 [P-0550, 2-((1R,5S)-3-(8-fluoro-7-(3-hydroxynaphthalen-1-yl)-2-((tetrahydro-1H-pyrrolizin-7a(5H)-yl)methoxy)quinazolin-4-yl)-3,8-diazabicyclo[3.2.1]octan-8-yl)acetamide] | 0.0001 to 10
CCc1cccc2c1N(c1ncc3c(N4C[C@H]5CC[C@@H](C4)N5)nc(OCC45CCCN4CCC5)nc3c1F)CCC2 [P-0558, 4-((1R,5S)-3,8-diazabicyclo[3.2.1]octan-3-yl)-7-(8-ethyl-3,4-dihydroquinolin-1(2H)-yl)-8-fluoro-2-((tetrahydro-1H-pyrrolizin-7a(5H)-yl)methoxy)pyrido[4,3-d]pyrimidine] | 0.0001 to 10
Nc1ccc(Cl)c(-c2c(Cl)cc3c(N4C[C@H]5CC[C@@H](C4)N5)nc(OCC45CCCN4CCC5)nc3c2F)c1 [P-0540, 3-(4-((1R,5S)-3,8-diazabicyclo[3.2.1]octan-3-yl)-6-chloro-8-fluoro-2-((tetrahydro-1H-pyrrolizin-7a(5H)-yl)methoxy)quinazolin-7-yl)-4-chloroaniline] | 0.0001 to 10
O=C(O)CN1[C@@H]2CC[C@H]1CN(c1nc(OCC34CCCN3CCC4)nc3c(F)c(-c4cc(O)cc5ccccc45)ccc13)C2 [P-0552, 2-((1R,5S)-3-(8-fluoro-7-(3-hydroxynaphthalen-1-yl)-2-((tetrahydro-1H-pyrrolizin-7a(5H)-yl)methoxy)quinazolin-4-yl)-3,8-diazabicyclo[3.2.1]octan-8-yl)acetic acid] | 0.0001 to 10
CN1CCC[C@H]1COc1nc(N2C[C@H]3CC[C@@H](C2)N3)c2cc(Cl)c(-c3cc(O)cc4ccccc34)nc2n1 [P-0045, 4-(4-((1R,5S)-3,8-diazabicyclo[3.2.1]octan-3-yl)-6-chloro-2-(((S)-1-methylpyrrolidin-2-yl)methoxy)pyrido[2,3-d]pyrimidin-7-yl)naphthalen-2-ol] | 0.0001 to 10

Same assay, conditions: Table 4; geometric mean; comparison with compounds of WO 2017/172979; read-out: KRAS GMean IC50 (uM) MUTATION: G12D

IC50 [µM] | Structure (SMILES)
3.06 | CC1CN(c2nc(OCCCN3CCC(F)(F)C3)nc3c(F)c(-c4cc(O)cc5ccccc45)c(Cl)cc23)C(C)CN1 (stereo not shown) [Compound 36 in WO 2017/172979, reference compound]
